The source made the active and inactive calls.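 Rule for the calls: active = compounds giving half or more protection of infected cells from virus-caused growth loss, again on retest; inactive = the rest.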 Where a SMILES comes first, the peptide text is derived from it. Bounds are passed on as bounds.

In this experiment the test system is CEM cells HIV-1 protection, formazan growth assay. Put plainly: NCI AIDS Antiviral Assay. The following applies: for IC50: measured here: growth of uninfected CEM cells. In outline:
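Screen of anti-HIV-1 activity in human CEM cells using a formazan-based growth measurement at five drug concentrations. Hits with 50% or greater protection were repeated, and confirmation required reproducible complete protection.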

Consider `O=Cc1c(C(=O)O)[nH]c(=O)[nH]c1=O`, for which the EC50 is above 200 µM and the IC50 was above 200 µM.
As to `COC1CCC2=CCC3C(=O)N(c4ccccc4)C(=O)C3C21` (stereo unspecified), the EC50 is above 603 µM and the IC50 is above 603 µM.
With `CC(=O)[O-].O=C([N-]/N=C\c1ccsc1)c1ccncc1.[Ni+2].[OH3+].c1cnc2c(c1)ccc1cccnc12`, the EC50 is above 200 µM and the IC50 is 47.9 µM.
Take `O=C(/C(=C/c1ccccc1Cl)c1ccccc1)c1ccccc1`: the EC50 was above 8.51 µM and the IC50 was above 8.51 µM.
Consider `O=C1C=CC2(CCC23C=CC(=O)O3)O1` (stereo unspecified), for which the EC50 is above 135 µM and the IC50 turned out to be 7.94 µM.
For `CCCCCCCCCCCC(=O)N(C)CCS(=O)(=O)O`, the result was inactive.
As to `COc1ccc(NC(=O)/C(=C/N2C(=O)/C(=C/c3ccc(OC)c(OC)c3)NC2=S)C(C)=O)cc1`, the EC50 is above 200 µM and the IC50 worked out at 23.4 µM.
In the same order, the values of `C=C(C(=O)OC)c1cc2ccccc2n1S(=O)(=O)c1ccccc1` are above 20 µM and 3.02 µM.
`CCOC(=O)C1=C(OC(OCC)C(CC)[Se]c2ccccc2)CCCC1` (stereo unspecified): the EC50 was above 23.4 µM and the 50% inhibitory concentration (IC50) was above 23.4 µM.
In the case of `O=C1C=CC[C@H]2O[C@@H](COC(=O)Cc3ccccc3)C[C@H]2O1`, the EC50 was above 200 µM and the IC50 stood at 34.7 µM.
For `Nc1n[nH]c2c(C(=O)Nc3ccc(Cl)cc3)c(N)n(N)c(=O)c12`, in that order: above 200 µM and above 200 µM.
`CC1CN=C(N(C(=O)Nc2ccc(Cl)cc2)c2cccc(Cl)c2)S1` (stereo unspecified): the result was inactive.
As for `NC(=O)c1cccn1Cc1ccccc1SSc1ccccc1Cn1cccc1C(N)=O`, the EC50 was above 15.8 µM and the IC50 was determined as 7.08 µM.
For `O=C1C(Cl)C(c2ccc([N+](=O)[O-])cc2)N1n1cnc2ccccc2c1=O` (stereo unspecified), in that order: above 7.41 µM and above 7.41 µM.
In the same order, the values of `CCN1CN(c2ccccc2)C2(CCN(CC(CC3OCCO3)c3ccc(F)cc3)CC2)C1=O` (stereo unspecified) are above 200 µM and 7.24 µM.
As for `CN(C)CCSc1cccc(-c2cc(-c3cccs3)nc(SCCN(C)C)n2)c1`, the EC50 is above 282 µM and the concentration for half-maximal inhibition (IC50) stood at 2.24 µM.
In the same order, the values of `NC1=NCc2c(sc3c2CCCC3)N1` are above 200 µM and 18.6 µM.
For `CCOc1c(OC)cc(CNNc2nccs2)cc1OC`, in that order: above 200 µM and 89.1 µM.
In the same order, the values of `CN(C)C(=O)N(CCC#N)CCN(C(=O)N(C)C)c1ccccc1` are above 200 µM and above 200 µM.
For `Cc1ccc(NC(=O)CCC(=O)C2CC(=O)CC/C2=N\NC(=O)c2cc3ccccc3cc2O)cc1C` (stereo unspecified), the EC50 was above 363 µM and the IC50 worked out at 12.9 µM.
Turning to `Cc1ccc(-c2cssc2=S)cc1`, the EC50 is above 200 µM and the IC50 is above 200 µM.
In the case of `CC(C)CC(NC(=O)C(Cc1ccc(O)cc1)NC(=O)C(C)N)C(=O)NCC(=O)NC(CCCCN)C(=O)NC(CCCCN)C(=O)NC(C(=O)NC(C)C(=O)NC(C(=O)NC(CC(=O)O)C(=O)O)C(C)O)C(C)C` (stereo unspecified) (H-AYLGKKVATD-OH; configuration not given here), the result was inactive.
As to `C=CC1(CC[C@]2(c3ccc(OC)c(OC)c3)C=[N+]([O-])O[C@H](O[C@@H]3CCCC[C@H]3C(C)(C)c3ccccc3)C2)OCC(C)(C)CO1`, the EC50 was above 200 µM and the IC50 is 11.2 µM.
Regarding `Cc1ccc(NC(=S)/C(=C(/[O-])c2ccc([N+](=O)[O-])cc2)[n+]2ccccc2)c(C)c1`, the EC50 was above 200 µM and the IC50 was above 200 µM.
As for `CC(=O)C1(O)Cc2c(O)c3c(c(O)c2C(OC2CC(N)C(O)C(C)O2)C1)C(=O)c1ccccc1C3=O` (stereo unspecified), the EC50 is above 339 µM and the IC50 came to 0.107 µM.
On to `CC#CCC(OC(C)=O)c1ccccc1` (stereo unspecified), for which the result was inactive.
Consider `O/N=C1/C(=C/c2ccc(Cl)cc2)CCCC1C(NO)c1ccc(Cl)cc1` (stereo unspecified), for which the EC50 is above 13.5 µM and the IC50 was above 13.5 µM.
Consider `Cc1cc2c(cn1)C(=O)OCC2`, for which the outcome was inactive.
For `O=C(c1ccccc1F)c1c(NCc2ccccc2)c(=O)c1=O`, the EC50 is 53.7 µM and the IC50 was determined as 102 µM.
As for `COC(=O)[C@@H]1CN(C(=O)c2ccccc2)C(=O)N1`, the EC50 is above 200 µM and the IC50 was above 200 µM.
Turning to `CC1(C)C2CCC1C(=O)[C@@]1(C=CC(=O)CC1)C2` (stereo partly specified), the EC50 is above 200 µM and the IC50 was above 200 µM.
In the case of `Cc1c(N2C(=O)/C(=C/c3ccc(N(CCC#N)CCC#N)cc3)N=C2c2ccccc2)c(=O)n(-c2ccccc2)n1C`, the EC50 was above 200 µM and the IC50 is 186 µM.
For `NC(=S)N/N=c1\cc(C(=O)Nc2ccc([N+](=O)[O-])cc2[N+](=O)[O-])oc2ccccc12`, in that order: above 60.3 µM and above 60.3 µM.
In the same order, the values of `C=CCC12CC(=O)CCC1c1ccc(OC)cc1C2=O` (stereo unspecified) are above 251 µM and 141 µM.
As to `CCc1oc2ccc(OC)c3c2c1C=CC=C3`, the outcome was inactive.
For `Nc1[nH]n(-c2ccccc2)c(=O)c1/C=N/C(=S)N=Nc1c(O)[nH]c2ccccc12`, the EC50 is above 200 µM and the IC50 was 83.2 µM.
For `S=C1NCCN1C(=S)Nc1ccccc1`, in that order: above 141 µM and above 141 µM.
For `O=c1cc(CSc2c(-c3ccccc3)c(=O)n(-c3ccccc3)c(=S)n2-c2ccccc2)[nH]c(=O)[nH]1`, the EC50 was above 200 µM and the IC50 was above 200 µM.
With `O=C(Cc1nccc2c1[nH]c1ccccc12)OC1C#CCSCC#C/C=C\1` (stereo unspecified), the EC50 was above 200 µM and the IC50 came out at 28.2 µM.
Consider `CCC1CC2CN3CCc4c([nH]c5ccc(OC)cc45)C(C(=O)OC)(C2)C13` (stereo unspecified), for which the result was inactive.
As to `CN1CCN(C)c2nc3ccccc3nc21`, the EC50 was 15.1 µM and the IC50 was determined as 87.1 µM.
As to `C=C1C(=O)O[C@@H]2C1C(OC(C)CCC)[C@@H](O)[C@@H](C)C(O)C1O[C@]1(C)[C@H]2O` (stereo partly specified), the result was inactive.
On to `Cc1cc2ccc(N)nc2[nH]c1=O`, for which the EC50 is above 200 µM and the IC50 is above 200 µM.
Turning to `Nc1ncnc2c1ncc(=O)n2C1CC(O)C(CO)O1` (stereo unspecified), the EC50 is above 200 µM and the IC50 was above 200 µM.
Regarding `COc1cc(C[C@H]2COC(=O)[C@]2(O)Cc2ccc(O)c(OC)c2)ccc1O`, the EC50 is 1.35 µM and the IC50 was 4.79 µM.
For `CCOC(=O)c1[nH]c2cccc3c2c1CC[C@H](NC(=O)C(F)(F)F)C3=O`, in that order: above 200 µM and above 200 µM.
For the compound `COC(=O)C1CC2c3ccccc3C1c1ccccc12` (stereo unspecified), the EC50 is above 200 µM and the IC50 is above 200 µM.
With `CC(C)(C)OC(=O)N1C(=O)C2CCCC21` (stereo unspecified), the EC50 is above 200 µM and the IC50 is above 200 µM.
Regarding `CC(C)(C)[Si](C)(C)OCC1OC(n2ccc(=O)[nH]c2=O)C(O[Si](C)(C)C(C)(C)C)/C1=C/C(N)=N\O` (stereo unspecified), the EC50 is above 200 µM and the IC50 came out at 9.12 µM.
For `O=C(O)c1c[nH]c2c([N+](=O)[O-])cccc2c1=O`, the EC50 is above 1070 µM, the outcome was inactive and the IC50 was determined as 9.12 µM.
Regarding `CC1(C)CC(=O)C(/C=N/C(=S)NC2CCCCC2)=C(O)C1`, the EC50 is above 100 µM and the IC50 was above 100 µM.
Take `NS(=O)(=O)c1ccc(NNc2c3ccccc3nc3ccccc23)cc1`: the EC50 is above 200 µM and the IC50 is 10.7 µM.
For the compound `C[C@]12CC[C@H](OC(=O)/C=C\c3ccc(N(CCCl)CCCl)cc3)CC1CC[C@@H]1C2CC[C@]2(C)NC(=O)CCC12` (stereo partly specified), the result was inactive.
Take `N#CC(C(=O)CCCC(=O)Nc1ccc(Cl)cc1Cl)c1ccc(Cl)cc1` (stereo unspecified): the outcome was inactive.
As to `O=C(O)CCSC(=O)Nc1cccc([N+](=O)[O-])c1`, the result was inactive.
`Nc1cccc(Nc2nc3ccccc3nc2NS(=O)(=O)c2ccccc2)c1`: the EC50 was above 200 µM and the IC50 came to 51.3 µM.
With `CCN(CC)C(=O)C(C)=O`, the EC50 is above 1740 µM and the half-inhibitory concentration (IC50) is above 1740 µM.
`CC1N(O)C(c2ccccc2)C(c2ccccc2)=[N+]1[O-]` (stereo unspecified): the EC50 was above 200 µM and the IC50 is above 200 µM.
With `Cc1cc2nn(C3CCCCO3)nc2cc1C` (stereo unspecified), the EC50 was above 200 µM and the IC50 was above 200 µM.
In the case of `O=C1c2ccccc2C(=O)C2OC12` (stereo unspecified), the EC50 was above 20 µM and the IC50 is 0.977 µM.
Turning to `CCCOC1OC(CS(=O)(=O)O)C(OC(C)=O)C(OC(C)=O)C1OC(C)=O` (stereo unspecified), the result was inactive.
As for `O=C(OCc1ccccc1)C(Cc1ccc(OCc2ccccc2)cn1)NC(=O)C(F)(F)F` (stereo unspecified), the EC50 is above 200 µM and the IC50 turned out to be 33.1 µM.
For `c1cnc(SCc2nc3ccccc3o2)nc1`, in that order: 38 µM and above 200 µM.
Take `Cn1cc2ccccc2c1-c1nc(F)nc(F)n1`: the EC50 is above 15.1 µM and the IC50 was above 15.1 µM.
As to `CCc1cccc(CC)c1NC(=O)CC1SC(N)=NC1=O` (stereo unspecified), the EC50 was above 427 µM and the IC50 is above 427 µM.
Turning to `CCCC(=O)OCC1(Cl)CCC2c3c(c4ccccc4n3C)CC1N2Cc1ccccc1` (stereo unspecified), the EC50 is above 11.5 µM and the IC50 turned out to be 6.92 µM.
Consider `O=C(O)CCSC(=O)Nc1ccccc1F`, for which the outcome was inactive.
`COC(=O)C1=C(O)C(C(=O)OC)[C@@]2(O)[C@@H](C(=O)OC)CC[C@@H]1[C@@H]2C(=O)OC` (stereo partly specified): the EC50 was above 200 µM and the IC50 is 38.9 µM.
For `C[C@@]12C[C@@H](c3ccccc3O1)N1CCCCSC1=N2`, in that order: above 200 µM and above 200 µM.
For the compound `O=C(O)/C(=C\c1ccccc1Cl)S(=O)(=O)c1ccccc1`, the result was inactive.
In the case of `O=C(Nc1ccn(C2CCC(COC(c3ccccc3)(c3ccccc3)c3ccccc3)O2)c(=O)n1)c1ccccc1` (stereo unspecified), the EC50 is above 200 µM and the IC50 is 9.77 µM.
In the case of `COC(=O)CC1NC(=O)C1C1(C)OCCO1` (stereo unspecified), the EC50 was above 251 µM and the IC50 is above 251 µM.

One may read the EC50 as the concentration giving half of the maximal effect. What is called IC50 is the midpoint of a concentration-inhibition curve. Low readings indicate higher potency, high ones lower potency.
